Data on 1 molecule can be found in patent US8383655B2, “Modulators of pharmacokinetic properties of therapeutics” (Gilead Sciences, Inc., priority 2006, dated 2013).

For orientation: EC50 means the concentration giving half of the maximal effect.

For this assay, the system named is HIV-1 strain IIIB. The assay can be described thus: Anti-HIV-1 cell culture assay (EC50), XTT cytopathic effect. It counts as cell-based. As to conditions: Human immunodeficiency virus 1, 120 h; MT2 cells infected with wild-type HIV-1 IIIB, 5 days; read-out: protease inhibition activity represented by HIV EC50. (In general: Formazan colour is commonly taken as a measure of viable cells.)

Experimental: The assay is based on quantification of the HIV-1-associated cytopathic effect by a colorimetric detection of the viability of virus-infected cells in the presence or absence of tested inhibitors. HIV-1-induced cell death was determined using a metabolic substrate 2,3-bis(2-methoxy-4-nitro-5-sulfophenyl)-2H-tetrazolium-5-carboxanilide (XTT) which is converted only by intact cells into a product with specific absorption characteristics as described by Weislow O S, Kiser R, Fine D L, Bader J, Shoemaker R H and Boyd M R, J. Natl. Cancer Inst.
The infected cells in culture media were distributed into a 96-well plate (20,000 cells in 100 μl/well), and incubated in the presence of a set of solutions containing 5-fold serial dilutions of the tested inhibitor (100 μl/well) for 5 days at 37° C. […]
To determine the antiviral activity of the tested inhibitors, a substrate XTT solution (6 mL per assay plate) at a concentration of 2 mg/mL in a phosphate-buffered saline pH 7.4 was heated in water-bath for 5 min at 55° C. before 50 μl of N-methylphenazonium methasulfate (5 μg/mL) was added per 6 mL of XTT solution. […] Viability, as determined by the amount of XTT metabolites produced, was quantified spectrophotometrically by the absorbance at 450 nm (with subtraction of the background absorbance at 650 nm).

Turning to `CC(C)c1nc(CN(C)C(=O)N[C@@H](CCN2CCOCC2)C(=O)N[C@H](CC[C@H](Cc2ccccc2)NC(=O)OCc2cncs2)Cc2ccccc2)cs1` [Example S], the EC50 was over 20 µM.
